Where two headings read alike, the source gives them in different places.
Columns and labels:
[1] = tested on: MDA-MB 231 (breast cancer) cells; assay: MTT antiproliferative assay, MDA-MB 231; format: cell-based; conditions: mean ± SEM of three experiments, read-out: IC50 values against selected human cancer cell lines, MDA-MB 231
Description: (§1) A panel of four cancer cell lines used for testing the in-vitro cytotoxicity include: MDA-MB-231 derived from human breast adenocarcinoma cells (ATCC No HTB-26), HeLa derived from human cervical cancer cells (ATCC No. CCL-2), A549 derived from human alveolar adenocarcinoma epithelial cells (ATCC No. CCL-185) and IMR-32 derived from human neuroblastoma cell line (ATCC No CCL-127), with a normal cell line HEK-293 (human embryonic kidney cell). These cancer cell lines were obtained from the American Type Culture Collection (ATCC), Manassas, VA, USA, and stored before use.
(§2) The cytotoxicity of synthesized compounds 4A–V were determined in triplicates by 3-[4,5-dimethylthiazol-2-yl]-2,5-diphenyltetrazolium bromide (MTT) assay[51]^,[52]. The pale yellow coloured tetrazolium salt (MTT) reduced to a dark blue water-insoluble formazan by metabolically active cells and the product was measured quantitatively after solubility in DMSO. The absorbance of the soluble formazan is directly proportional to the number of viable cells. A panel of four cancer cell lines were used for testing the in-vitro cytotoxicity. These cell lines were grown in Dulbecco’s modified Eagle’s medium (DMEM) containing non-essential amino acids and 10% FBS. All the cells were maintained under humidified conditions of 5% CO2 atmosphere at 37 °C in a CO2 incubator (Model Galaxy 170S, Eppendorf, USA). The 96-well micro titre plates were incubated for 24 h prior to addition of the experimental compounds. Cells were treated with vehicle alone (DMSO) or compounds (drugs (1 µg/mL) were dissolved in 100 µL DMSO previously) at different concentrations (0.1, 1, 10 and 25 µM) of test compounds for 48 h. The assay was completed with the addition of MTT (5%, 10µL) and incubated for 60 min at 37 °C. The supernatant was aspirated and plates were air dried and the MTT-formazan crystals were dissolved in 100 µL of DMSO.
(§3) The optical density (O.D) was measured at 570 nm using TECAN multimode reader (Infinite® M200Pro, Tecan, Switzerland). The percent cell viability of each treated well of 96 well plate was calculated based on test wells relative to control wells. Doxorubicin was used as positive controls for comparison purpose and 1% DMSO as a vehicle control. The cytotoxicity of test compounds was expressed in terms of IC50 value, which is defined as a concentration of compound that produced 50% reduction absorbance relative to control, and the absorbance at 570 nm wavelength was recorded.

[2] = tested on: HeLa (cervical cancer) cells; assay: MTT antiproliferative assay, HeLa; format: cell-based; conditions: 48 h, mean ± SEM of three experiments, read-out: IC50 values against selected human cancer cell lines, HeLa
Description: as §1, §2, §3

A549 (lung cancer) cells = assay: MTT antiproliferative assay, A549; format: cell-based; conditions: Homo sapiens, 48 h, mean ± SEM of three experiments, read-out: IC50 values against selected human cancer cell lines, A549
Description: These cancer cell lines were obtained from the American Type Culture Collection (ATCC), Manassas, VA, USA, and stored before use.
The pale yellow coloured tetrazolium salt (MTT) reduced to a dark blue water-insoluble formazan by metabolically active cells and the product was measured quantitatively after solubility in DMSO. The absorbance of the soluble formazan is directly proportional to the number of viable cells. A panel of four cancer cell lines were used for testing the in-vitro cytotoxicity. These cell lines were grown in Dulbecco’s modified Eagle’s medium (DMEM) containing non-essential amino acids and 10% FBS. […] The 96-well micro titre plates were incubated for 24 h prior to addition of the experimental compounds. […] The supernatant was aspirated and plates were air dried and the MTT-formazan crystals were dissolved in 100 µL of DMSO.
The optical density (O.D) was measured at 570 nm using TECAN multimode reader (Infinite® M200Pro, Tecan, Switzerland). The percent cell viability of each treated well of 96 well plate was calculated based on test wells relative to control wells. Doxorubicin was used as positive controls for comparison purpose and 1% DMSO as a vehicle control.

[3] = tested on: IMR-32 (neuroblast cancer) cells; assay: MTT antiproliferative assay, IMR-32; format: cell-based; conditions: mean ± SEM of three experiments, read-out: IC50 values against selected human cancer cell lines, IMR32
Description: as §1, §2, §3

[4] = tested on: HEK-293 (human embryonic kidney normal cell line); assay: MTT cytotoxicity assay, normal cell line HEK-293; format: cell-based; conditions: for IC50: normal cell line
Description: as §1, §2, §3

SMILES	IC50 ([1]; Homo sapiens, MDA-MB-231, 48 h) [µM]	IC50 ([2]; Homo sapiens, HeLa) [µM]	IC50 (A549 (lung cancer) cells) [µM]	IC50 ([3]; Homo sapiens, IMR-32, 48 h) [µM]	melting point [°C]	IC50 ([1]; 48 h) [µM]	IC50 [2] [µM]	IC50 ([3]; 48 h) [µM]	IC50 ([4]; Homo sapiens, HEK293, 48 h) [µM]	IC50 ([4]; 48 h) [µM]	Cytotoxicity towards normal cell line HEK-293 (in words) ([4]; normal cells)
COc1cc(/C(=C\S(=O)(=O)c2ccc(C)cc2)c2ccccc2)cc(OC)c1OC [Compound 4A, (Z)-1,2,3-trimethoxy-5-(1-phenyl-2-tosylvinyl)benzene]	19.4 ± 1.72	9.4 ± 0.72	6.39 ± 0.68	6.4 ± 0.82	139 to 141				> 25		
COc1cc(/C(=C\S(=O)(=O)c2ccc(C)cc2)c2ccc(F)cc2)cc(OC)c1OC [Compound 4G]	13.2 ± 1.49	8.73 ± 0.49	6.92 ± 0.65	7.29 ± 0.46	141 to 143				> 25		
COc1cc(/C(=C\S(=O)(=O)c2ccc(C)cc2)c2ccc(C(F)(F)F)cc2)cc(OC)c1OC [Compound 4H]	15.9 ± 1.44	9.62 ± 0.44	6.84 ± 0.7	7.48 ± 0.13	125 to 127				> 25		
COc1cc(/C(=C\S(=O)(=O)c2ccc(C)cc2)c2ccc(F)cc2F)cc(OC)c1OC [Compound 4I]	12.7 ± 0.4	9.46 ± 0.4	13.1 ± 0.86	15.1 ± 0.16	113 to 115				> 25		
COc1cc(/C(=C\S(=O)(=O)c2ccc(C)cc2)c2ccc(F)c(F)c2)cc(OC)c1OC [Compound 4J]	13.1 ± 0.92	9.98 ± 0.42	11.3 ± 0.83	12.03 ± 0.02	140 to 142				> 25		
CCOc1ccc(F)c(/C(=C/S(=O)(=O)c2ccc(C)cc2)c2cc(OC)c(OC)c(OC)c2)c1 [Compound 4K]	13.6 ± 0.89	9.5 ± 0.49	7.02 ± 0.84	8.06 ± 0.09	125 to 127				> 25		
COc1cc(/C(=C\S(=O)(=O)c2ccc(C)cc2)c2ccc(F)c(Cl)c2)cc(OC)c1OC [Compound 4L]	13.4 ± 1.49	8.74 ± 0.49	8.54 ± 0.85	5.12 ± 0.36	123 to 125				> 25		
COc1cc(/C(=C\S(=O)(=O)c2ccc(C)cc2)c2ccc(Cl)cc2)cc(OC)c1OC [Compound 4M]	11.1 ± 1.5		5.12 ± 0.08	6.79 ± 0.44	96 to 98				> 25		
COc1cc(/C(=C\S(=O)(=O)c2ccc(C)cc2)c2ccc(C#N)cc2)cc(OC)c1OC [Compound 4O]	12.4 ± 1.67	9.83 ± 0.76	9.14 ± 0.91	9.08 ± 0.07	165 to 167				> 25		
COc1cc(/C(=C\S(=O)(=O)c2ccc(C)cc2)c2cccc(C(F)(F)F)c2F)cc(OC)c1OC [Compound 4Q]						12.2 ± 1.61	10.7 ± 0.74	7.46 ± 0.61		> 25	
COc1cc(/C(=C\S(=O)(=O)c2ccc(C)cc2)c2cc(C)ccc2F)cc(OC)c1OC [Compound 4R]	12.2 ± 0.54	10.5 ± 1.03	7.46 ± 0.07	6.14 ± 0.03					> 25		
COc1cc(/C(=C\S(=O)(=O)c2ccc(C)cc2)c2ccc(-c3ccccc3)cc2)cc(OC)c1OC [Compound 4U]	23.9 ± 1.56	11.7 ± 0.81	11.1 ± 0.78	11.8 ± 0.13	132 to 134				> 25		
COc1cc(C#CS(=O)(=O)c2ccc(C)cc2)cc(OC)c1OC [Compound 4V]					119 to 121						showed some level of cytotoxicity
COc1cccc2c1C(=O)c1c(O)c3c(c(O)c1C2=O)C[C@@](O)(C(=O)CO)C[C@@H]3O[C@H]1C[C@H](N)[C@H](O)[C@H](C)O1 [Doxorubicin, reference compound]	0.89 ± 0.02	1.68 ± 0.24		0.23							

The next lines start with results.

IC50 ([1]; Homo sapiens, MDA-MB-231, 48 h) [µM]	IC50 ([2]; Homo sapiens, HeLa) [µM]	IC50 (A549 (lung cancer) cells) [µM]	IC50 ([3]; Homo sapiens, IMR-32, 48 h) [µM]	melting point [°C]	IC50 ([1]; 48 h) [µM]	IC50 [2] [µM]	IC50 ([3]; 48 h) [µM]	SMILES	IC50 ([4]; Homo sapiens, HEK293, 48 h) [µM]	IC50 ([4]; 48 h) [µM]	Cytotoxicity towards normal cell line HEK-293 (in words) ([4]; normal cells)
14.6 ± 0.85	8.59 ± 0.58	4.68 ± 0.46	4.1 ± 0.96	124 to 126				COc1ccc(/C(=C/S(=O)(=O)c2ccc(C)cc2)c2cc(OC)c(OC)c(OC)c2)cc1 [Compound 4B]	> 25		
13.6 ± 1.56	10.6 ± 0.56	7.04 ± 0.08	7.04 ± 0.83	107 to 109				COc1ccc(/C(=C/S(=O)(=O)c2ccc(C)cc2)c2cc(OC)c(OC)c(OC)c2)c(OC)c1 [Compound 4C]	> 25		
14.9 ± 1.54	10.9 ± 0.54	5.52 ± 0.06	6.25 ± 0.03	173 to 175				COc1ccc(/C(=C/S(=O)(=O)c2ccc(C)cc2)c2cc(OC)c(OC)c(OC)c2)cc1OC [Compound 4D]	> 25		
14.1 ± 1.51	11.1 ± 0.51	5.32 ± 0.92	6.23 ± 0.09	163 to 165				COc1cc(OC)cc(/C(=C/S(=O)(=O)c2ccc(C)cc2)c2cc(OC)c(OC)c(OC)c2)c1 [Compound 4E]	> 25		
9.85 ± 0.72	9.64 ± 0.96	6.79 ± 0.19	9.14 ± 0.84	151 to 153				COc1cc(/C(=C\S(=O)(=O)c2ccc(C)cc2)c2ccc(Cl)c(Cl)c2)cc(OC)c1OC [Compound 4N]	> 25		
10.4 ± 1.55	8.39 ± 0.99	7.22 ± 0.81	6.29 ± 0.07	124 to 126				COc1cc(/C(=C\S(=O)(=O)c2ccc(C)cc2)c2ccc(C)c(F)c2)cc(OC)c1OC [Compound 4T]	> 25		

Reference: PMC8814031, “Synthesis and characterization of novel combretastatin analogues of 1,1-diaryl vinyl sulfones, with antiproliferative potential via in-silico and in-vitro studies” (Scientific Reports, 2022)
